SMILES strings stand for the structures.

Assay [1] relates to caspase-8 p43/41 processing intermediate. The assay can be described thus: Caspase-8 p43/41 processing in HEK293 cells after PMA/Ion. Conditions: data not shown. Type of assay: cell-based. From the text: Caspase-8 plays an essential role in antigen receptor-mediated NF-κB activation. It was recently reported that MALT1 interacts with Caspase-8 and activates this protease upon antigen receptor activation. […] We then examined if CID-2858522 affected the pathway at this point. PMA induced significant MALT1-caspase-8 interaction in HEK293 cells over-expressing Flag-MALT1 and Caspase-8. […] The caspase-8 p43/41 processing intermediate was generated in HEK293 cells after PMA/Ion treatment. […] We then assessed the effects of CID-2858522 on PMA-induced proteolytic processing of c-FLIP, a Caspase-8-mediated event recently shown to be required for antigen receptor mediated NF-κB activation.

Assay [2] deals with T1, JAK2 (Homo sapiens, UniProt O60674).
T1 construct: proprietary tag (Ambit); purchased Ambit, Inc
The assay can be described thus: KINOMEscan competition binding assay, JAK2. An excerpt:
CID-2858522 is not a potent protein kinase inhibitor. Protein kinases play critical roles in NF-κB activation. PKCs are proximal kinases in the NF-κB pathways activated by PMA/Ionomycin and by T- and B-cell antigen receptors, while the IKKs are distal kinases operating in the terminal segments of these and other NF-κB activation pathways. We therefore tested whether CID-2858522 inhibits members of these kinase families by in vitro kinase assays. For these experiments, we tested PKC-beta and PKC-theta (the PKC family members implicated in TCR/BCR signaling), and IKK-beta (a component of the IKK complex) (FIG. 6). […] In addition to assessing these three kinases by conventional in vitro kinase assays, a kinome screen was performed using a high throughput screening method, KINOMEscan™, which is an active-site dependent competition binding assay in which human kinases of interest are fused to a proprietary tag (Ambit). The amount of kinase bound to an immobilized, active-site directed ligand is measured in the presence and absence of the test compound. […] Thus, CID-2858522 inhibits none of the protein kinases previously implicated in regulating NF-κB.
In Vitro Kinase Assays. PKC-beta, PKC-theta and IKK-beta in vitro kinase assays were performed using the HTScan Kinase Assay Kit (Cell Signaling, Danvers, Mass.) according to manufacturer's protocols. […]

For assay [3], the system named is p65-DNA binding activity. Briefly: p65-DNA binding activity in anti-IgM-stimulated CLL B-cells. Type of assay: cell-based. Conditions: human CLL B-cells. The procedure:
(A) Isolated mouse primary splenocytes were cultured with anti-CD3/anti-CD28 (0.3 μg/mL each) or anti-IgM (3 μg/mL) for 48 h, then 1 μCi 3H-Thymidine was added for 12 h and incorporation into DNA was measured, expressing data as fold increase above unstimulated cells (mean±SD; n=3). (B-D) Primary splenocytes were pretreated for 2 h with IKK inhibitor, BMS-335541 (B), PKC inhibitor, Bisindolylmaleimide I (C) or CID-2858522 (D), then stimulated with anti-CD3/anti-CD28 (0.3 μg/mL) or anti-IgM (3 μg/mL) for 48 h. 1 μCi 3H-Thymidine was added for 12 h and incorporation into DNA was measured, expressing data as percent inhibition relative to control cells treated with DMSO (mean±SD; n=3). […] Levels of TRAF1 and β-actin were assessed by immunoblotting, quantified by densitometry and TRAF1 results reported relative to control cells, after normalization for β-actin (mean±SD). […] Then nuclear extracts were prepared and p65-DNA-binding activity was measured (mean±SD; n=3).
NF-κB DNA-binding activity assays. Nuclear extracts were prepared from 10 cm^2 plates of confluent cells using a kit (Active Motif, Carsbad, Calif.). The total protein content of nuclear fractions was quantified by the Bradford method, followed by storage at −80° C. […]

Assay [4] concerns TNF-α-induced IKK-β phosphorylation. Briefly: TNF-α-induced IKK-β phosphorylation in HEK293 cells. Type of assay: cell-based. Particulars: 4 μM.

T1 sequence (O60674 whole entry): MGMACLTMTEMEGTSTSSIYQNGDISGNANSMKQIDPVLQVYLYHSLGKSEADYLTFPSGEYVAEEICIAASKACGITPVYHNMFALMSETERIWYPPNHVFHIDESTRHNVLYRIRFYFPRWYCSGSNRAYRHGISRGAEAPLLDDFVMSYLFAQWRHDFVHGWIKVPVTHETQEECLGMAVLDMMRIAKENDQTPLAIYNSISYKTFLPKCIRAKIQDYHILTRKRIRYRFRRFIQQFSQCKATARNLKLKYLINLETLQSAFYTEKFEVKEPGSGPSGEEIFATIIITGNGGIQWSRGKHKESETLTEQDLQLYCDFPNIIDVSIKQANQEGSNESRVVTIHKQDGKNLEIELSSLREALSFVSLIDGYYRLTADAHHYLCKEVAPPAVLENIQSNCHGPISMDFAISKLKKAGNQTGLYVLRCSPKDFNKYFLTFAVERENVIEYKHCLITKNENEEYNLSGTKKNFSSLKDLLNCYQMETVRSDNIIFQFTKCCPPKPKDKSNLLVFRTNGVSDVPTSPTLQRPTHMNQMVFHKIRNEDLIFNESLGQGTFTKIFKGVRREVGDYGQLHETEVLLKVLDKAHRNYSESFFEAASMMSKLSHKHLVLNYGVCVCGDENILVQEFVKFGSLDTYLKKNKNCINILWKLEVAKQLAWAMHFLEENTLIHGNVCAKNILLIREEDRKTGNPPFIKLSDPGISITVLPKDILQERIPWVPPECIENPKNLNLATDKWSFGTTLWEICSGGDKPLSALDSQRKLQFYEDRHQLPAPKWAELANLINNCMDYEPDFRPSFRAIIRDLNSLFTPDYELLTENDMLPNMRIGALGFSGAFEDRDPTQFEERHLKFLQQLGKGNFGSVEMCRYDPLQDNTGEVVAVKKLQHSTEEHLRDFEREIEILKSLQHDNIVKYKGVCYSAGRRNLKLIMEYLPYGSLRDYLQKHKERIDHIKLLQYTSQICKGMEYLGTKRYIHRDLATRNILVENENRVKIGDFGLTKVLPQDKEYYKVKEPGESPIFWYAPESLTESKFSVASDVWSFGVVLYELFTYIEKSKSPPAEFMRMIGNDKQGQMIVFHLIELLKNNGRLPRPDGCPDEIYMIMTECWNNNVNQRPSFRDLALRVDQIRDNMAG

Take `CN(C)CCCn1cc(C2=C(c3c[nH]c4ccccc34)C(=O)NC2=O)c2ccccc21` [Bisindolylmaleimide I, reference compound]: in assay [1], the “inhibition of caspase-8 p43/41 processing intermediate” value is “inhibited”.
One may read the inhibition as how much of the control response was suppressed. A lower inhibition goes with a weak effect. Regarding `Cc1cc2nc(NCCCO)n(CC(=O)c3cc(C(C)(C)C)c(O)c(C(C)(C)C)c3)c2cc1C` [Compound 1, 2-(2-(3-Hydroxypropylamino)-5,6-dimethyl-1H-benzo[d]imidazol-1-yl)-1-(3,5-di-tert-butyl-4-hydroxyphenyl)ethanone], the inhibition at 10 µM in assay [2] was found to be 53%. Further, the “suppression of anti-IgM-induced p65-DNA binding activity” value in assay [3] was “direct suppression”. In assay [4], the “inhibition of TNF-α-induced IKK-β phosphorylation” value was “failed to inhibit”.

The values are drawn from patent publication US20090247520A1, “INHIBITORS OF ANTIGEN RECEPTOR-INDUCED NF-kappa B ACTIVATION” (The Burnham Institute for Medical Research, priority 2008, published 2009).
